We go through 19 compounds from ChEMBL document CHEMBL3864160, “Discovery of fluorobenzimidazole HCV NS5A inhibitors” (Bioorg Med Chem Lett, 2016).

Each structure is given as a SMILES string.

A short description of assay [1]: Inhibition of Hepatitis C virus genotype 2b replicon NS5A transfected in human HuH7 cells assessed as decrease in replication of viral replicon after 4 days by luciferase reporter gene assay. It is filed as cell-based, Hepatitis C virus subtype 2b. The note with it: Huh-7, 96 h.
Assay [2] can be described thus: Inhibition of Hepatitis C virus genotype 2a replicon NS5A transfected in human HuH7 cells assessed as decrease in replication of viral replicon after 4 days by luciferase reporter gene assay. The note with it: Huh-7, 96 h. It is filed as cell-based, Hepatitis C virus subtype 2a. Background: Replicon systems follow genome replication, usually without infectious particles.

The nature of assay [3]: Inhibition of Hepatitis C virus genotype 4a replicon NS5A transfected in human HuH7 cells assessed as decrease in replication of viral replicon after 4 days by luciferase reporter gene assay. It is filed as cell-based, Hepatitis C virus subtype 4a. The settings on record: Huh-7, 96 h.
Assay [4] can be described thus: Inhibition of Hepatitis C virus genotype 1a H77 replicon NS5A transfected in human HuH7 cells assessed as decrease in replication of viral replicon after 4 days by luciferase reporter gene assay. It is filed as cell-based, Hepatitis C virus (isolate H77). The note with it: Huh-7, 96 h.
Assay [5] is described as follows: Inhibition of Hepatitis C virus genotype 1b Con1 replicon NS5A transfected in human HuH7 cells assessed as decrease in replication of viral replicon after 4 days by luciferase reporter gene assay. It is filed as cell-based, Hepatitis C virus (isolate Con1). The settings on record: Huh-7, 96 h.
Assay [6] is described as follows: Inhibition of Hepatitis C virus genotype 3a replicon NS5A transfected in human HuH7 cells assessed as decrease in replication of viral replicon after 4 days by luciferase reporter gene assay. The settings on record: Huh-7, 96 h. It counts as cell-based, Hepatitis C virus subtype 3a.
Assay [7] in a line: Inhibition of Hepatitis C virus genotype 6a replicon NS5A transfected in human HuH7 cells assessed as decrease in replication of viral replicon after 4 days by luciferase reporter gene assay. It counts as cell-based, Hepatitis C virus subtype 6a. The note with it: Huh-7, 96 h.
The nature of assay [8]: Inhibition of Hepatitis C virus genotype 1a H77 replicon NS5A transfected in human HuH7 cells assessed as decrease in replication of viral replicon in presence of 40% human plasma after 4 days by luciferase reporter gene assay. The note with it: Huh-7, Plasma, 96 h. It is filed as cell-based, Hepatitis C virus (isolate H77).
Assay [9] can be described thus: Inhibition of Hepatitis C virus genotype 1b Con1 replicon NS5A transfected in human HuH7 cells assessed as decrease in replication of viral replicon in presence of 40% human plasma after 4 days by luciferase reporter gene assay. It counts as cell-based, Hepatitis C virus (isolate Con1). The settings on record: Huh-7, Plasma, 96 h.

By EC50 is commonly meant the concentration at which the effect is half-maximal. Turning to `COC(=O)N[C@H](C(=O)N1CCC[C@H]1c1nc2nc(-c3ccc(-c4ccc5[nH]c([C@@H]6CCCN6C(=O)[C@@H](NC(=O)OC)C(C)C)nc5n4)cc3)ccc2[nH]1)C(C)C`, the half-maximal effective concentration (EC50) in [1] was 1.43 nM; in [2], more than 100 nM; in assay [3], 1.84 nM; in assay [4] it was 1.12 nM; in [5], 0.283 nM; in [6], 6.69 nM.

Consider `COC(=O)N[C@H](C(=O)N1CCC[C@H]1c1cc2nc(-c3ccc(-c4ccc5[nH]c([C@@H]6CCCN6C(=O)[C@@H](NC(=O)OC)C(C)C)cc5n4)cc3)ccc2[nH]1)C(C)C`, for which the EC50 in [1] was more than 100 nM; in assay [2], more than 100 nM; in assay [3] it was more than 100 nM; in assay [4], more than 100 nM; in [5], 7.44 nM; in assay [6] it was more than 100 nM.

For `COC(=O)N[C@H](C(=O)N1CCC[C@H]1c1nc2c(F)c(-c3ccc(-c4ccc5[nH]c([C@@H]6CCCN6C(=O)[C@@H](NC(=O)OC)C(C)C)nc5c4F)cc3)ccc2[nH]1)C(C)C`, the EC50 in [1] came to 0.222 nM; in assay [2] it was 40.2 nM; in [3] it was 0.33 nM; in assay [4] it was 0.129 nM; in assay [7], 4.75 nM; in assay [5], 0.013 nM. Besides, in assay [6], the EC50 is 0.645 nM.

Turning to `COC(=O)N[C@H](C(=O)N1CCC[C@H]1c1nc2cc(-c3ccc(-c4cc5nc([C@@H]6CCCN6C(=O)[C@@H](NC(=O)OC)C(C)C)[nH]c5cc4F)cc3)c(F)cc2[nH]1)C(C)C`, the half-maximal effective concentration (EC50) in [1] is less than 0.03 nM; in assay [2] it was 31 nM; in assay [3] it was 0.008 nM; in assay [4], 0.076 nM; in [7], 0.274 nM; in assay [5], less than 0.03 nM. For the same compound, the EC50 in assay [6] is 0.444 nM.

On to `COCc1c(-c2ccc(-c3ccc4[nH]c([C@@H]5CCCN5C(=O)[C@@H](NC(=O)OC)C(C)C)nc4c3COC)cc2)ccc2[nH]c([C@@H]3CCCN3C(=O)[C@@H](NC(=O)OC)C(C)C)nc12`, for which the half-maximal effective concentration (EC50) is 77.5 nM in assay [1]; more than 100 nM in assay [2]; 1.19 nM in [3]; 1.18 nM in assay [4]; more than 100 nM in assay [7]; 0.193 nM in assay [5]. Besides, in [6], the concentration for a half-maximal effect (EC50) stood at 15.5 nM.

Take `COC(=O)N[C@H](C(=O)N1CCC[C@H]1c1nc2c(F)c([C@H]3CC[C@H](c4ccc5[nH]c([C@@H]6CCCN6C(=O)[C@@H](NC(=O)OC)C(C)C)nc5c4F)N3c3ccc(C(C)(C)C)cc3)ccc2[nH]1)C(C)C`: the half-maximal effective concentration (EC50) in [8] turned out to be 0.823 nM; in [9], 0.211 nM; in assay [1] it was 0.009 nM; in assay [2], 0.612 nM; in [3] it was 0.007 nM; in assay [4] it was 0.022 nM. Further, the EC50 in assay [7] stood at 0.114 nM; in assay [5] it was 0.01 nM; in assay [6], 0.02 nM.

`COC(=O)N[C@H](C(=O)N1CCC[C@H]1c1nc2cc(-c3ccc(-c4cnc5[nH]c([C@@H]6CCCN6C(=O)[C@@H](NC(=O)OC)C(C)C)nc5c4)cc3)cnc2[nH]1)C(C)C`: the half-maximal effective concentration (EC50) in assay [1] was 6.5 nM; in assay [2] it was more than 100 nM; in assay [3], 1.1 nM; in assay [4] it was 5.58 nM; in [5], 1.54 nM; in [6], more than 100 nM.

On to `COC(=O)N[C@H](C(=O)N1CCC[C@H]1c1nc2cc(-c3ccc(-c4cc(C)c5[nH]c([C@@H]6CCCN6C(=O)[C@@H](NC(=O)OC)C(C)C)nc5c4)cc3)cc(C)c2[nH]1)C(C)C`, for which the EC50 in assay [1] was 3.93 nM; in assay [2] it was more than 100 nM; in [3], 0.404 nM; in assay [4], 0.98 nM; in [7], 22.9 nM; in assay [5], 0.031 nM. Further, in [6], the EC50 stood at 17.5 nM.

Regarding `COC(=O)N[C@H](C(=O)N1CCC[C@H]1c1nc2c(C)c(-c3ccc(-c4ccc5[nH]c([C@@H]6CCCN6C(=O)[C@@H](NC(=O)OC)C(C)C)nc5c4C)cc3)ccc2[nH]1)C(C)C`, the 50% effective concentration (EC50) in assay [1] was 0.32 nM; in assay [2] it was 28 nM; in [3], 0.014 nM; in assay [4], 0.038 nM; in [7], 7.05 nM; in [5], 0.014 nM. The EC50 in assay [6] was 0.104 nM.

With `COC(=O)N[C@H](C(=O)N1CCC[C@H]1c1nc2cc(-c3ccc(-c4cc5nc([C@@H]6CCCN6C(=O)[C@@H](NC(=O)OC)C(C)C)[nH]c5cc4OC)cc3)c(OC)cc2[nH]1)C(C)C`, the half-maximal effective concentration (EC50) in assay [1] was 88.6 nM; in assay [2] it was more than 100 nM; in assay [3] it was 0.548 nM; in assay [4] it was 25.5 nM; in assay [7] it was more than 100 nM; in [5], 0.093 nM. The concentration giving a half-maximal response (EC50) in assay [6] is more than 100 nM.

Regarding `COC(=O)N[C@H](C(=O)N1CCC[C@H]1c1nc2c(Cl)c([C@H]3CC[C@H](c4ccc5[nH]c([C@@H]6CCCN6C(=O)[C@@H](NC(=O)OC)C(C)C)nc5c4Cl)N3c3ccc(C(C)(C)C)cc3)ccc2[nH]1)C(C)C`, the concentration for a half-maximal effect (EC50) stood at 1.85 nM in assay [8]; 0.731 nM in assay [9]; 0.038 nM in [1]; 1.83 nM in [2]; 0.01 nM in assay [3]; 0.034 nM in assay [4]. For the same compound, the concentration for a half-maximal effect (EC50) was 0.59 nM in assay [7], 0.013 nM in assay [5] and 0.037 nM in assay [6].

As for `COC(=O)N[C@H](C(=O)N1CCC[C@H]1c1nc2cc(-c3ccc(-c4cc(C(F)(F)F)c5[nH]c([C@@H]6CCCN6C(=O)[C@@H](NC(=O)OC)C(C)C)nc5c4)cc3)cc(C(F)(F)F)c2[nH]1)C(C)C`, the 50% effective concentration (EC50) in assay [1] was more than 10 nM; in [2], more than 100 nM; in assay [3] it was 1.9 nM; in assay [4] it was 23 nM; in [7] it was more than 10 nM; in [5], 0.107 nM. Besides, the EC50 in assay [6] was more than 100 nM.

On to `COC(=O)N[C@H](C(=O)N1CCC[C@H]1c1nc2ccc(-c3ccc(-c4ccc5nc([C@@H]6CCCN6C(=O)[C@@H](NC(=O)OC)C(C)C)[nH]c5c4)cc3)cc2[nH]1)C(C)C`, for which the EC50 was determined as 0.06 nM in assay [1]; 75.5 nM in [2]; 0.062 nM in assay [3]; 0.272 nM in assay [4]; 0.022 nM in assay [5]; 1.12 nM in [6].

For `COC(=O)N[C@H](C(=O)N1CCC[C@H]1c1nc2c(F)c(-c3ccc(-c4c(F)cc5[nH]c([C@@H]6CCCN6C(=O)[C@@H](NC(=O)OC)C(C)C)nc5c4F)cc3)c(F)cc2[nH]1)C(C)C`, the EC50 in [1] came to 0.218 nM; in assay [2], 43.1 nM; in assay [3] it was 0.077 nM; in assay [4] it was 0.507 nM; in assay [7], 17.3 nM; in assay [5], 0.016 nM. The concentration for a half-maximal effect (EC50) in [6] came to 1.43 nM.

`COC(=O)N[C@H](C(=O)N1CCC[C@H]1c1nc2cc(-c3ccc(-c4cc(OC)c5[nH]c([C@@H]6CCCN6C(=O)[C@@H](NC(=O)OC)C(C)C)nc5c4)cc3)cc(OC)c2[nH]1)C(C)C`: the concentration giving a half-maximal response (EC50) in assay [1] is 56.8 nM; in assay [2] it was more than 100 nM; in assay [3] it was 0.162 nM; in assay [4] it was 0.628 nM; in assay [7], more than 100 nM; in assay [5], 0.095 nM. For the same compound, in assay [6], the concentration for a half-maximal effect (EC50) is 92.4 nM.

For `COC(=O)N[C@H](C(=O)N1CCC[C@H]1c1nc2cc(-c3ccc(-c4cc(F)c5[nH]c([C@@H]6CCCN6C(=O)[C@@H](NC(=O)OC)C(C)C)nc5c4)cc3)cc(F)c2[nH]1)C(C)C`, the EC50 is 0.516 nM in [1]; 13.8 nM in assay [2]; 0.04 nM in [3]; 0.579 nM in assay [4]; less than 0.03 nM in assay [5]; 6.49 nM in assay [6].

Regarding `COC(=O)N[C@H](C(=O)N1CCC[C@H]1c1nc2cc(-c3ccc(-c4cc5nc([C@@H]6CCCN6C(=O)[C@@H](NC(=O)OC)C(C)C)[nH]c5cc4C(F)(F)F)cc3)c(C(F)(F)F)cc2[nH]1)C(C)C`, the EC50 in assay [1] stood at 4.49 nM; in [2] it was 49.6 nM; in assay [3] it was 0.049 nM; in [4], 12 nM; in [7] it was 21.5 nM; in assay [5], 0.006 nM. The concentration for a half-maximal effect (EC50) in [6] is 43.4 nM.

For `COC(=O)N[C@H](C(=O)N1CCC[C@H]1c1nc2c(C)c([C@H]3CC[C@H](c4ccc5[nH]c([C@@H]6CCCN6C(=O)[C@@H](NC(=O)OC)C(C)C)nc5c4C)N3c3ccc(C(C)(C)C)cc3)ccc2[nH]1)C(C)C`, the EC50 in assay [8] is 0.52 nM; in assay [9], 0.557 nM; in assay [1] it was 0.025 nM; in assay [2], 0.594 nM; in [3], 0.005 nM; in [4] it was 0.01 nM. Moreover, the EC50 in assay [7] was found to be 0.132 nM; in assay [5], 0.01 nM; in assay [6], 0.02 nM.

With `COC(=O)N[C@H](C(=O)N1CCC[C@H]1c1nc2cc(-c3ccc(-c4cc5nc([C@@H]6CCCN6C(=O)[C@@H](NC(=O)OC)C(C)C)[nH]c5cc4C)cc3)c(C)cc2[nH]1)C(C)C`, the half-maximal effective concentration (EC50) in assay [1] is 0.148 nM; in assay [2] it was 9.18 nM; in assay [3] it was less than 0.03 nM; in [4], 1.47 nM; in [7], 3.24 nM; in [5], 0.008 nM. Also, the 50% effective concentration (EC50) in assay [6] worked out at 4.45 nM.
